One series concerns the target integrase (Human immunodeficiency virus type 1 group M subtype B, UniProt P04585). Description: Integrase inhibition assay (microtiter plate strand transfer, substrate DNA/target DNA, anti-digoxigenin ELISA readout). It is filed as biochemical. To be noted: concentration of the compound at percent inhibition 50%; OD at 405 nm. How it is done:
The inhibitory activities against integrase of the compounds in the present invention have been determined by the assay described below.
Substrate DNA and target DNA, which sequences were indicated below, were synthesized by Amersham Pharmacia Biotech and dissolved in KTE buffer (composition: 100 mM KCl, 1 mM EDTA, 10 mM Tris-HCl (pH 7.6)) at concentration of 2 pmol/μl and 5 pmol/μl, respectively. The DNA solutions were annealed with each complement by slowly cooling after heating.
Streptavidin, obtained from Vector Laboratories, was dissolved in 0.1 M carbonate buffer (composition: 90 mM Na2CO3, 10 mM NaHCO3) at concentration of 40 μg/ml. After coating each well of microtiter plates (obtained from NUNC) with 50 μl of the above solution at 4° C. over night, each well was washed twice with PBS (composition: […], 0.27 mM KCl, 0.43 mM Na2HPO4, 0.14 mM KH2PO4) and blocked with 300 μL of 1% skim milk in PBS for 30 min. Additionally, each well was washed twice with PBS and added 50 μl of substrate DNA solution (2 pmol/μl). The microtiter plates were kept at room temperature for 30 min. Then, each well was washed twice with PBS and once with H2O.
Subsequently, in the each well prepared above were added 45 μl of the reaction buffer prepared from 12 μl of the buffer (composition: 150 mM MOPS (pH 7.2), 75 mM MnCl2, 50 mM 2-mercaptoethanol, 25% glycerol, 500 μg/ml bovine serum albumin-fraction V), 1 μl of target DNA (5 pmol/μl), and 32 μl of the distilled water. Additionally, 6 μl of either a test compound in DMSO or DMSO for positive control (PC) was mixed with the above reaction buffer, then 9 μl of an integrase solution (30 pmol) was added and mixed well. In the well of negative control (NC) was added 9 μl of the integrase dilution buffer (composition: 20 mM MOPS (pH7.2), 400 mM potassium glutamate, 1 mM EDTA, 0.1% NP-40, 20% glycerol, 1 mM DTT, 4 M urea).
The microtiter plates were incubated at 30° C. for 1 hour. The reaction solution was removed and each well was washed twice with PBS. Subsequently, each well of the microtiter plates was filled with 100 μl of anti-digoxigenin antibody labeled with alkaline phosphatase (Sheep Fab fragment: obtained from Boehringer) and incubated at 30° C. for 1 hour. Then, each well was washed twice with 0.05% Tween20 in PBS and once with PBS. Next, 150 μl of the Alkaline phosphatase reaction buffer (composition: 10 mM p-Nitrophenylphosphate (obtained from Vector Laboratories), 5 mM MgCl2, 100 mM NaCl, 100 mM Tris-HCl (pH 9.5)) was added in each well. The microtiter plates were incubated at 30° C. for 2 hours and the reaction was terminated by the addition of 50 μl of 1 N NaOH solution. The optical density (OD) at 405 nm of each well was measured and the percent inhibition was determined by the following expression. The percent inhibition (%)=100[1−{(C abs.−NC abs.)/(PC abs.−NC abs.)}] • C abs.; the OD of the well of the • NC abs.: the OD of the negative control (NC) • PC abs.: the OD of the positive control (PC)
When the percent inhibition (%) is X % at the concentration of x μg/ml and the percent inhibition (%) is Y % at the concentration of y μg/ml, one of which is more than 50% and the other is less than 50%, IC50 can be determined by the following expression. IC50(μg/ml)=x−{(X−50)(x−y)/(X−Y)}
Background: An ELISA detects its analyte on a solid surface through an enzyme-linked reagent.

On to `O=C(O)c1ccc2[nH]c(CCc3ccc(F)cc3)nc2c1O`, for which the melting point (as a rule, the temperature of the solid-liquid transition) is 152 to 155 °C.

As for `O=C(c1cc(Cl)c2[nH]c(Cc3ccc(F)cc3)nc2c1O)N1CCCC1` [Compound I-20], the melting point was 268 to 272 °C (dec.). Besides, the IC50 (commonly the concentration that gives 50% inhibition) against integrase is 2030 nM. Take `CCOC(=O)c1cc(CC)c2cc(Cc3ccc(F)cc3)cnc2c1O`: the melting point lay within 78 to 80 °C. In turn, `Cc1nc2c(O)c(-c3nnc(COc4ccccc4)o3)cc(Cl)c2[nH]1` [Compound I-37] had a melting point of 266 to 268 °C. For the same molecule, the IC50 against integrase was 1540 nM. Turning to `O=C(c1ccc(Sc2ccc(F)cc2)o1)c1cc(Cl)c2cccnc2c1O` [Compound I-63], the melting point was 120 to 122 °C. For the same molecule, 1050 nM corresponded to half-maximal inhibition against integrase (IC50). For `COC(=O)c1cc(Cl)c2c(nc(Cc3ccc(F)cc3)n2C)c1O` [Compound I-6], the melting point is 198 to 201 °C. At integrase, this molecule had an IC50 of 1270 nM. Consider `COC(=O)c1cc(C(=O)Nc2ccccn2)c2cc(Cc3ccc(F)cc3)cnc2c1O`, for which the melting point fell in the range of 190 to 194 °C.

On to `CCn1c(C)nc2c(O)c(-c3ncc(Cc4ccc(F)cc4)o3)ccc21`, for which the melting point was 150 to 151 °C. Molecule `O=C(c1nccs1)c1ccc2[nH]c(Cc3ccc(F)cc3)nc2c1O` [Compound I-27] gave a melting point of 239 to 240 °C. The same molecule had an IC50 at integrase of 538 nM. Molecule `O=C(c1ccccc1)c1cc(C(=O)O)c2cc(Cc3ccc(F)cc3)cnc2c1O` yielded a melting point of 220 to 223 °C. `O=C(O)c1cc(Cl)c2cc(Cc3ccc(F)cc3)cnc2c1O` [Compound I-65]: the melting point was in the range of 222 to 224 °C. On integrase, the IC50 is 332 nM. The matching figures for `Cc1nc2c(O)c(-c3nnc(Cc4ccccc4)o3)cc(Cl)c2[nH]1` [Compound I-35]: 255 to 257 °C and 704 nM. With `O=C(c1ccc(Cc2ccc(F)cc2)o1)c1cc(Cl)c2cccnc2c1O`, the melting point was 126 to 128 °C. `COC(=O)c1cc(Cl)c2[nH]c(Cc3ccc(F)cc3)nc2c1O` [Compound I-1] showed a melting point of 257 to 260 °C. The molecule also had an IC50 on integrase of 1610 nM.

The record behind these values is patent US7148237B2, “Nitrogen-containing heteroaryl compounds having HIV integrase inhibitory activity” (Shionogi & Co., Ltd., priority 2001, dated 2006).
